Assays:
[1] = Biodistribution of Beta-Carotene after periorbital skin administration (Example 4); type: in vivo, cynomolgus monkeys; settings: for concentration at 3 h / concentration at 0.5 h / concentration at 6 h / concentration at 24 h: cynomolgus monkey, topical; for concentration at 3 h: 507.6 μg/left eye
Protocol: [The procedure below names another target; the source lists this target under the same test.] (§1) This is supported by results obtained with a markedly different compound docosahexaenoic acid (DHA), which are shown in Table 2. An oil solution comprising 14.85 mg/mL β-Carotene+198.02 mg/ml DHA in linoleic acid was administered to one eye (OD) by circumferential topical application to the periorbital skin that surrounds the anterior portion of the globe. Blood samples (1 mL) and were collected at 0, 0.5, 2, 6, and 24 hours after a single administration to the periorbital skin of the right eye (OD) At each of the above pre-designated time points, one animal was euthanized after blood collection and selected eye tissue samples were collected from both eyes. The following representative tissues were collected; upper eyelid, cornea, retina, and vitreous humor. DHA concentrations in the samples were determined by the LC-MS/MS method. The DHA was administered via NIODP at the dose of 6775.1±92.5 μg per eye (mean±SEM), to the left eye of monkeys in the pharmacokinetics and biodistribution study. Again, for convenience of sample processing, only upper eyelids were collected. Substantial quantities of DHA (>10 μg/g) remained in the upper eyelid/periorbital region, retina, and cornea, at all tested time points of 0.5, 3, 6 and 24-hour post dosing. […] Compared to the BLQ baseline, plasma concentrations of DHA were between 1.2 and 3.1 μg/ml, equivalent to […] (MW 328.5) via NIODP. The plasma Cmax was at 0.5 hours post-dose.
Thus, not all compounds are readily uptaken and distributed to the posterior area of the eye.

[2] = Biodistribution of DHA after periorbital skin administration (Example 4); type: in vivo, cynomolgus monkeys; settings: for concentration at 0.5 h / concentration at 24 h / concentration at 3 h / concentration at 6 h: cynomolgus monkey, topical; for concentration at 0.5 h: 6567.89 μg/left eye; for concentration at 24 h: 6746.51 μg/left eye; for concentration at 3 h: 6768.26 μg/left eye; for concentration at 6 h: 7017.66 μg/left eye
Protocol: as §1

[3] = 0.5 h, 492.59 μg/left eye periorbital skin
[4] = 3 h, 507.60 μg/left eye periorbital skin
[5] = 6 h, 526.32 μg/left eye periorbital skin
[6] = 24 h, 505.99 μg/left eye periorbital skin
[7] = 0.5 h, 6567.89 μg/left eye periorbital skin
[8] = 3 h, 6768.26 μg/left eye periorbital skin
[9] = 6 h, 7017.66 μg/left eye periorbital skin
[10] = 24 h, 6746.51 μg/left eye periorbital skin

## CC1=C(/C=C/C(C)=C/C=C/C(C)=C/C=C/C=C(C)/C=C/C=C(C)/C=C/C2=C(C)CCCC2(C)C)C(C)(C)CCC1 [Beta-Carotene, β-Carotene]
[1]; [3]
  % of administered dose, Left cornea: 0.000%
  % of administered dose, Left retina: 0.000%
  % of administered dose, Left upper eyelid: 0.19%
  % of administered dose, Left vitreous humor: 0.000%
[1]; 0.5 h, 492.59 μg/left eye periorbital skin, animal 101
  Drug Concentration in Plasma: BLQ
[1]; [4]
  % of administered dose, Left cornea: 0.000%
  % of administered dose, Left retina: 0.000%
  % of administered dose, Left upper eyelid: 0.44%
  % of administered dose, Left vitreous humor: 0.000%
[1]; 3 h, 507.60 μg/left eye periorbital skin, animal 102
  Drug Concentration in Plasma: BLQ
[1]; [5]
  % of administered dose, Left cornea: 0.000%
  % of administered dose, Left retina: 0.000%
  % of administered dose, Left upper eyelid: 0.000%
  % of administered dose, Left vitreous humor: 0.000%
[1]; 6 h, 526.32 μg/left eye periorbital skin, animal 103
  Drug Concentration in Plasma: BLQ
[1]; [6]
  % of administered dose, Left cornea: 0.000%
  % of administered dose, Left retina: 0.000%
  % of administered dose, Left upper eyelid: 0.000%
  % of administered dose, Left vitreous humor: 0.000%
[1]; 24 h, 505.99 μg/left eye periorbital skin, animal 104
  Drug Concentration in Plasma: BLQ
[1]; compared with DHA in the same formulation
  uptake and biodistribution following periorbital administration: not as readily uptaken and biodistributed
[1]; cornea, 3 h, 507.60 μg/left eye periorbital skin, read-out: Drug Concentration in Tissue, Cornea
  concentration at 3 h: 0 ng/g
[1]; cornea, 0.5 h, 492.59 μg/left eye periorbital skin, read-out: Drug Concentration in Tissue, Cornea
  concentration at 0.5 h: 0 ng/g
[1]; cornea, 6 h, 526.32 μg/left eye periorbital skin, read-out: Drug Concentration in Tissue, Cornea
  concentration at 6 h: 0 ng/g
[1]; cornea, 24 h, 505.99 μg/left eye periorbital skin, read-out: Drug Concentration in Tissue, Cornea
  concentration at 24 h: 0 ng/g
[1]; retina, 3 h, 507.60 μg/left eye periorbital skin, read-out: Drug Concentration in Tissue, Retina
  concentration at 3 h: 0 ng/g
[1]; retina, 0.5 h, 492.59 μg/left eye periorbital skin, read-out: Drug Concentration in Tissue, Retina
  concentration at 0.5 h: 0 ng/g
[1]; retina, 6 h, 526.32 μg/left eye periorbital skin, read-out: Drug Concentration in Tissue, Retina
  concentration at 6 h: 0 ng/g
[1]; retina, 24 h, 505.99 μg/left eye periorbital skin, read-out: Drug Concentration in Tissue, Retina
  concentration at 24 h: 0 ng/g
[1]; upper eyelid, 3 h, 507.60 μg/left eye periorbital skin, read-out: Drug Concentration in Tissue, Upper eyelid
  concentration at 3 h: 36000 ng/g
[1]; upper eyelid, 0.5 h, 492.59 μg/left eye periorbital skin, read-out: Drug Concentration in Tissue, Upper eyelid
  concentration at 0.5 h: 12600 ng/g
[1]; upper eyelid, 6 h, 526.32 μg/left eye periorbital skin, read-out: Drug Concentration in Tissue, Upper eyelid
  concentration at 6 h: 0 ng/g
[1]; upper eyelid, 24 h, 505.99 μg/left eye periorbital skin, read-out: Drug Concentration in Tissue, Upper eyelid
  concentration at 24 h: 0 ng/g
[1]; vitreous humor, 3 h, 507.60 μg/left eye periorbital skin, read-out: Drug Concentration in Tissue, Vitreous humor
  concentration at 3 h: 0 ng/g
[1]; vitreous humor, 0.5 h, 492.59 μg/left eye periorbital skin, read-out: Drug Concentration in Tissue, Vitreous humor
  concentration at 0.5 h: 0 ng/g
[1]; vitreous humor, 6 h, 526.32 μg/left eye periorbital skin, read-out: Drug Concentration in Tissue, Vitreous humor
  concentration at 6 h: 0 ng/g
[1]; vitreous humor, 24 h, 505.99 μg/left eye periorbital skin, read-out: Drug Concentration in Tissue, Vitreous humor
  concentration at 24 h: 0 ng/g

## CC/C=C\C/C=C\C/C=C\C/C=C\C/C=C\C/C=C\CCC(=O)O [DHA, docosahexaenoic acid]
[2]; 0.5-hour post dosing
  maximum in retina: 111 µg/g
[2]; [7]
  % of administered dose, Left cornea: 0.03%
  % of administered dose, Left retina: 0.04%
  % of administered dose, Left upper eyelid: 0.42%
  % of administered dose, Left vitreous humor: 0.00%
[2]; 0.5 h, 6567.89 μg/left eye periorbital skin, animal 101
  Drug Concentration in Plasma: 2160 ng/mL
[2]; [8]
  % of administered dose, Left cornea: 0.01%
  % of administered dose, Left retina: 0.04%
  % of administered dose, Left upper eyelid: 0.38%
  % of administered dose, Left vitreous humor: 0.00%
[2]; 3 h, 6768.26 μg/left eye periorbital skin, animal 102
  Drug Concentration in Plasma: 3130 ng/mL
[2]; [9]
  % of administered dose, Left cornea: 0.01%
  % of administered dose, Left retina: 0.01%
  % of administered dose, Left upper eyelid: 0.01%
  % of administered dose, Left vitreous humor: 0.00%
[2]; 6 h, 7017.66 μg/left eye periorbital skin, animal 103
  Drug Concentration in Plasma: 2110 ng/mL
[2]; [10]
  % of administered dose, Left cornea: 0.02%
  % of administered dose, Left retina: 0.03%
  % of administered dose, Left upper eyelid: 0.02%
  % of administered dose, Left vitreous humor: 0.00%
[2]; 24 h, 6746.51 μg/left eye periorbital skin, animal 104
  Drug Concentration in Plasma: 1150 ng/mL
[2]; LLOQ 0.5 μg/ml
  DHA in vitreous humor: below the limit of quantification (BLQ)
[2]; all tested time points of 0.5, 3, 6 and 24-hour, NIODP 6775.1±92.5 μg per eye
  DHA in upper eyelid/periorbital region, retina and cornea: > 10 µg/g
[2]; left cornea, 0.5 h, 6567.89 μg/left eye periorbital skin, read-out: Drug Concentration in Tissue, Left cornea
  concentration at 0.5 h: 66300 ng/g
[2]; left cornea, 24 h, 6746.51 μg/left eye periorbital skin, read-out: Drug Concentration in Tissue, Left cornea
  concentration at 24 h: 25900 ng/g
[2]; left cornea, 3 h, 6768.26 μg/left eye periorbital skin, read-out: Drug Concentration in Tissue, Left cornea
  concentration at 3 h: 21600 ng/g
[2]; left cornea, 6 h, 7017.66 μg/left eye periorbital skin, read-out: Drug Concentration in Tissue, Left cornea
  concentration at 6 h: 22300 ng/g
[2]; left retina, 0.5 h, 6567.89 μg/left eye periorbital skin, read-out: Drug Concentration in Tissue, Left retina
  concentration at 0.5 h: 111000 ng/g
[2]; left retina, 24 h, 6746.51 μg/left eye periorbital skin, read-out: Drug Concentration in Tissue, Left retina
  concentration at 24 h: 47300 ng/g
[2]; left retina, 3 h, 6768.26 μg/left eye periorbital skin, read-out: Drug Concentration in Tissue, Left retina
  concentration at 3 h: 66700 ng/g
[2]; left retina, 6 h, 7017.66 μg/left eye periorbital skin, read-out: Drug Concentration in Tissue, Left retina
  concentration at 6 h: 78600 ng/g
[2]; left upper eyelid, 0.5 h, 6567.89 μg/left eye periorbital skin, read-out: Drug Concentration in Tissue, Left upper eyelid
  concentration at 0.5 h: 381000 ng/g
[2]; left upper eyelid, 24 h, 6746.51 μg/left eye periorbital skin, read-out: Drug Concentration in Tissue, Left upper eyelid
  concentration at 24 h: 16200 ng/g
[2]; left upper eyelid, 3 h, 6768.26 μg/left eye periorbital skin, read-out: Drug Concentration in Tissue, Left upper eyelid
  concentration at 3 h: 420000 ng/g
[2]; left upper eyelid, 6 h, 7017.66 μg/left eye periorbital skin, read-out: Drug Concentration in Tissue, Left upper eyelid
  concentration at 6 h: 10700 ng/g
[2]; left vitreous humor, 0.5 h, 6567.89 μg/left eye periorbital skin, BLQ given 0, read-out: Drug Concentration in Tissue, Left vitreous humor
  concentration at 0.5 h: 0 ng/g
[2]; left vitreous humor, 24 h, 6746.51 μg/left eye periorbital skin, BLQ given 0, read-out: Drug Concentration in Tissue, Left vitreous humor
  concentration at 24 h: 0 ng/g
[2]; left vitreous humor, 3 h, 6768.26 μg/left eye periorbital skin, BLQ given 0, read-out: Drug Concentration in Tissue, Left vitreous humor
  concentration at 3 h: 0 ng/g
[2]; left vitreous humor, 6 h, 7017.66 μg/left eye periorbital skin, BLQ given 0, read-out: Drug Concentration in Tissue, Left vitreous humor
  concentration at 6 h: 0 ng/g
[2]; plasma, 0.5 h, 6567.89 μg/left eye periorbital skin, animal 101, read-out: Drug Concentration in Plasma
  concentration at 0.5 h: 2200 ng/mL
[2]; plasma, 24 h, 6746.51 μg/left eye periorbital skin, animal 104, read-out: Drug Concentration in Plasma
  concentration at 24 h: 1200 ng/mL
[2]; plasma, 3 h, 6768.26 μg/left eye periorbital skin, animal 102, read-out: Drug Concentration in Plasma
  concentration at 3 h: 3100 ng/mL
[2]; plasma, 6 h, 7017.66 μg/left eye periorbital skin, animal 103, read-out: Drug Concentration in Plasma
  concentration at 6 h: 2100 ng/mL
[2]; periorbital skin
  dose gradient via NIODP: eyelid≈retina>cornea>>vitreous humor=0
